In ChEMBL document CHEMBL1201862, “PubChem BioAssay data set” (2004):
Active and inactive are the calls of the source.

Experiments:
[1] = target: Galanin receptor type 3 (Homo sapiens, UniProt O60755); test: Fluorescence-based cell-based primary high throughput dose response assay to identify antagonists of the Galanin Receptor 3 (GalR3).; type: functional
[2] = cells; type: functional, cell-based; settings: HEK-CNG
[3] = target: T1, Nuclear receptor subfamily 0 group B member 1 (Homo sapiens, UniProt P51843); type: functional, cell-based;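 note: HEK293T cells transfected with SF-1 and DAX-1 plus StAR promoter luciferase reporter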
T1 sequence (P51843 whole entry): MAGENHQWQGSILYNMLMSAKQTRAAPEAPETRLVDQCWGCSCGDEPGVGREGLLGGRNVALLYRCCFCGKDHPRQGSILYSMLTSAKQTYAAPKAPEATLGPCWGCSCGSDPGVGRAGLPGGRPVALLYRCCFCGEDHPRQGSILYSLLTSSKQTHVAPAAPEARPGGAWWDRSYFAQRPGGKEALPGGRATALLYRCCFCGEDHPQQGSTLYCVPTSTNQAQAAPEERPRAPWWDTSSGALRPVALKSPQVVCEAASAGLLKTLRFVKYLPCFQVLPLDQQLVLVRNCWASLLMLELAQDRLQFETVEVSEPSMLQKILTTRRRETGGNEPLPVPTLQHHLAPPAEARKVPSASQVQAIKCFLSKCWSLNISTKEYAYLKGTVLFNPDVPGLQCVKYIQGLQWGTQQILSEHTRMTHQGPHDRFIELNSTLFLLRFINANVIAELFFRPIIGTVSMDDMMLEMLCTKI

[4] = cells; type: functional, cell-based
[5] = cells; settings: A549
[6] = blockers of HIV-1 envelope-mediated cell-cell fusion – cherry-pick, dose response (AID 652057); type: functional, cell-based
[7] = cells; settings: HEK293
[8] = cells
[9] = target: T2, Endoribonuclease toxin MazF (Escherichia coli K-12, UniProt P0AE70); test: substrate-only fluorescence increase artefacts – biochemical, single-stranded RNase substrate, counter-screen for MazEF activator project, dose response (AID 588502); type: functional
T2 sequence (P0AE70 whole entry): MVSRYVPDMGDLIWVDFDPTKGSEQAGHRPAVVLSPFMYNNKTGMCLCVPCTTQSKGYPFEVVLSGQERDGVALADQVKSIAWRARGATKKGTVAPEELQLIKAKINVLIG

[10] = target: T2, Endoribonuclease toxin MazF; test: activation of MazEF endoribonuclease cleavage – biochemical, fluorescence, single-stranded RNA substrate, uHTS hits, dose response (AID 588481); type: functional
[11] = target: T3, Polyadenylate-binding protein 1 (Homo sapiens, UniProt P11940); test: MLLE binding blockers, Cy5 peptide tracer – biochemical, fluorescence polarization, Cy5-PAM2 peptide, secondary, miRNA deadenylation inhibitor project, dose response (AID 602260); type: functional; settings: read-out: IC50_Mean
T3 sequence (P11940 whole entry): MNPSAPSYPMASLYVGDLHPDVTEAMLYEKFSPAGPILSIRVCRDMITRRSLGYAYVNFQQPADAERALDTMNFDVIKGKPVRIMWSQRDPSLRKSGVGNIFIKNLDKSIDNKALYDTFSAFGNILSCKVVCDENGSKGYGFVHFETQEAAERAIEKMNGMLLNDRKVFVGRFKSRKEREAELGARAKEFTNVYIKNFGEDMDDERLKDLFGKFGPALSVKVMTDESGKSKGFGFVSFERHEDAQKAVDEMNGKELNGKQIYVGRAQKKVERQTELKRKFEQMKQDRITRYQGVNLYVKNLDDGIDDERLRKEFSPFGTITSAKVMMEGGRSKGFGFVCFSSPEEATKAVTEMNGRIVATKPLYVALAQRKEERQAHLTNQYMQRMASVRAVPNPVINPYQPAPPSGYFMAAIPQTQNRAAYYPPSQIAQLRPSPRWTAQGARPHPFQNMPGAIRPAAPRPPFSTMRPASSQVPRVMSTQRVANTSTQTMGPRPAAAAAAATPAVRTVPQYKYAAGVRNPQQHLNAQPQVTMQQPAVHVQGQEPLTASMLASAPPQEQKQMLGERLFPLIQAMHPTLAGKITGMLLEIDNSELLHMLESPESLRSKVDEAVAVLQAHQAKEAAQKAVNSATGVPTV

[12] = Counterscreen for activators of the function of SWI/SNF related, matrix associated, actin dependent regulator of chromatin, subfamily a, member 2 (SMARCA2, BRM): Luminescence-based cell-based high throughput dose response assay to identify non-selective compounds using the VP16 reporter assay.; type: functional
[13] = target: T3, Polyadenylate-binding protein 1; test: MLLE domain peptide-binding blockers, IC50 – biochemical, fluorescence polarization, FITC-PAM2 peptide, dose response (AID 602259); type: functional; settings: read-out: IC50_Mean
[14] = target: SWI/SNF-related matrix-associated actin-dependent regulator of chromatin subfamily A member 2 (Homo sapiens, UniProt P51531); test: Luminescence-based cell-based high throughput dose response assay to identify activators of the function of SWI/SNF related, matrix associated, actin dependent regulator of chromatin, subfamily a, member 2 (SMARCA2, BRM).; type: functional
Sequence of SWI/SNF-related matrix-associated actin-dependent regulator of chromatin subfamily A member 2 (P51531 whole entry): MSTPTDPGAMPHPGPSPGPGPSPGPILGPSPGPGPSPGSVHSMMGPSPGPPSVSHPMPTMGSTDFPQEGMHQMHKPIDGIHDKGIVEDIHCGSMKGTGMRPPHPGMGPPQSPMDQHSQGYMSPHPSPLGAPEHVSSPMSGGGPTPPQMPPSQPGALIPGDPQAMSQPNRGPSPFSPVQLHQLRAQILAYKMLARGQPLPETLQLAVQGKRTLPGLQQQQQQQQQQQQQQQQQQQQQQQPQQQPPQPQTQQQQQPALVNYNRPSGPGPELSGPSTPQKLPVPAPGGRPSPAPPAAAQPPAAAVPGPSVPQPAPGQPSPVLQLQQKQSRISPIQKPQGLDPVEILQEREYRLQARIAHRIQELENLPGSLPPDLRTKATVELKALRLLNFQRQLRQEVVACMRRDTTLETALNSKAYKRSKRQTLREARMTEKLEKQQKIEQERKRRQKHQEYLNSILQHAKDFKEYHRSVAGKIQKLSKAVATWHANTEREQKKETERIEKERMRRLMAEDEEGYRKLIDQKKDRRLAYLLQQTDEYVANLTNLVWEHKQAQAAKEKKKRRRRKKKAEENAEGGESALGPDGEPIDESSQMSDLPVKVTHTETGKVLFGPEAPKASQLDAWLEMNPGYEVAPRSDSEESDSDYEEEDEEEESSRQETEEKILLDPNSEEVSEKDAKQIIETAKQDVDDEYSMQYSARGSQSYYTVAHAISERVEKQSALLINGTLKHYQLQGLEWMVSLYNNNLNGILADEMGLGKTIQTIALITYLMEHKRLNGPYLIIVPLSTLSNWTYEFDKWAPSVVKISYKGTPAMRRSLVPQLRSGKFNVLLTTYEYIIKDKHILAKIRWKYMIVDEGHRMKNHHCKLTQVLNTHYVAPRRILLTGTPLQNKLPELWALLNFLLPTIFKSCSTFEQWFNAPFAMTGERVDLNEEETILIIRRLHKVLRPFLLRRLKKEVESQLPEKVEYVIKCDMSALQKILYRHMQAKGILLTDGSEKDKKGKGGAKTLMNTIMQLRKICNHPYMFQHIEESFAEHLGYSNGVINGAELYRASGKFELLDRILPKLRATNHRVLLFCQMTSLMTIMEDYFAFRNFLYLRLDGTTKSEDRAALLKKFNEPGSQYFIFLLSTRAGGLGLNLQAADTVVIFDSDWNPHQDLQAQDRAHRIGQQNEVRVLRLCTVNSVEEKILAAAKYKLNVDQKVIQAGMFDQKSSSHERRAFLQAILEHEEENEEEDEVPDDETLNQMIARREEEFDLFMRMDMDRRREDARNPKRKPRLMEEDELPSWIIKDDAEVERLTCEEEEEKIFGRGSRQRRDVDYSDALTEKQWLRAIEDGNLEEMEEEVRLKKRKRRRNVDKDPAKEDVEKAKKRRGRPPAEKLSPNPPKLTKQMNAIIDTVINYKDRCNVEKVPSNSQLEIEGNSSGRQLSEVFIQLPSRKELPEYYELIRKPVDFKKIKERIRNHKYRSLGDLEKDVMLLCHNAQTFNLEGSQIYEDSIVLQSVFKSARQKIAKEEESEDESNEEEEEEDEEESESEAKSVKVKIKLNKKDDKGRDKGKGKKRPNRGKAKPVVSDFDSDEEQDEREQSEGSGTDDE

[15] = tested on: HepG2; test: viability loss in HepG2 hepatoma cells – cell-based, cherry-picks, set 2, cytotoxicity control, dose response (AID 687002); type: functional; settings: Homo sapiens
[16] = tested on: A549; test: viability loss in A549 cells – cell-based, plate reader, cherry-pick samples, cytotoxicity control, dose response (AID 687028); type: functional; settings: Homo sapiens
[17] = tested on: Vero; test: viability loss in Vero cells – cell-based, plate reader, cherry-pick samples, cytotoxicity control, dose response (AID 687020); type: functional; settings: Chlorocebus sabaeus
[18] = microbe, parasite or virus in culture; type: functional; settings: Mycobacterium tuberculosis
[19] = target: COUP transcription factor 2 (Homo sapiens, UniProt P24468); test: Luminescence-based cell-based high throughput dose response assay to identify inhibitors of COUP-TFII (NR2F2).; type: functional;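 note: HEK293 cells transiently cotransfected with COUP-TFII expression vector and reporter; luciferase reporter luminescence driven by COUP-TFII from the pX2-168 reporter plasmid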
Sequence of COUP transcription factor 2 (P24468 whole entry): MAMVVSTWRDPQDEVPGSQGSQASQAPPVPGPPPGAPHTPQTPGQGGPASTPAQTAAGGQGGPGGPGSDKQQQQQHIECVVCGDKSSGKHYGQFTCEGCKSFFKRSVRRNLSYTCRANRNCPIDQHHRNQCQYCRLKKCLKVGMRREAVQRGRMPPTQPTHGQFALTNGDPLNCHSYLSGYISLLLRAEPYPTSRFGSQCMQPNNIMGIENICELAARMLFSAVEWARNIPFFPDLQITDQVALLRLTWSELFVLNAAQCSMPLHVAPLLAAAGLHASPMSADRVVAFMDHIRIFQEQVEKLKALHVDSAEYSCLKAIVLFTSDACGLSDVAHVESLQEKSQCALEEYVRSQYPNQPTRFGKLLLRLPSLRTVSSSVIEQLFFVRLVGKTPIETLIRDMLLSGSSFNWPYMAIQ

[20] = A549 cell cytotoxicity, dose response, cytotoxicity control, plate reader, cherry-pick, antagonist series (AID 743412); type: functional, cell-based
[21] = OVCAR-3 cell viability loss – plate reader, dry powder samples, PAX8 inhibitor project, dose response (AID 743044); type: functional, cell-based
[22] = toxicity toward immortalized ovarian surface epithelium – cell-based, plate reader, dry powder samples, cytotoxicity control for PAX8 inhibitor project, dose response (AID 743045); type: functional
[23] = OVCAR8 cell viability loss – plate reader, dry powder samples, PAX8 project, dose response (AID 743197); type: functional, cell-based; settings: OVCAR-8
[24] = IGROV1 cell killing – plate reader, dry powder samples, PAX8 inhibitor project, dose response (AID 743043); type: functional, cell-based; settings: IGROV-1
[25] = HepG2 cell viability loss – cherry-picked samples, cytotoxicity control, dose response (AID 1053183); type: functional, cell-based
[26] = toxicity toward HepG2 liver cells – cell-based, plate reader, cherry-pick, antagonist series, cytotoxicity control, dose response (AID 743416); type: functional
[27] = HEK293 cell viability loss – cherry-picked samples, cytotoxicity control, dose response (AID 1053185); type: functional, cell-based
[28] = blockade of melanocortin 4 receptor signaling – cell-based, plate reader, cherry pick, counter-screen for LGR2 antagonist project, dose response (AID 743444); type: functional;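 note: transfected HEK 293 cells stimulated with alpha-MSH peptide; potency of inhibitors of the alpha-MSH evoked signal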
[29] = viability loss in HEK293 cells – cell-based, plate reader, cherry-picked samples, cytotoxicity control, dose response (AID 743446); type: functional
[30] = blockers of bursicon-stimulated LGR2 cAMP reporter – cell-based, HEK293, CRE-luciferase reporter, cherry pick, set 2, dose response (AID 743343); type: functional;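 note: transfected cells were stimulated with diluted bursicon conditioned medium after compound addition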
[31] = target: Paired box protein Pax-8 (Homo sapiens, UniProt Q06710); test: PAX8 transcriptional activity inhibition in RMG-I – RMG-I cells, luciferase, cherry-pick, dose response (AID 687027); type: functional, cell-based;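 note: luciferase reporter driven by Pax8 target thyroperoxidase promoter measured by SteadyGlo luminescence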
Sequence of Paired box protein Pax-8 (Q06710 whole entry): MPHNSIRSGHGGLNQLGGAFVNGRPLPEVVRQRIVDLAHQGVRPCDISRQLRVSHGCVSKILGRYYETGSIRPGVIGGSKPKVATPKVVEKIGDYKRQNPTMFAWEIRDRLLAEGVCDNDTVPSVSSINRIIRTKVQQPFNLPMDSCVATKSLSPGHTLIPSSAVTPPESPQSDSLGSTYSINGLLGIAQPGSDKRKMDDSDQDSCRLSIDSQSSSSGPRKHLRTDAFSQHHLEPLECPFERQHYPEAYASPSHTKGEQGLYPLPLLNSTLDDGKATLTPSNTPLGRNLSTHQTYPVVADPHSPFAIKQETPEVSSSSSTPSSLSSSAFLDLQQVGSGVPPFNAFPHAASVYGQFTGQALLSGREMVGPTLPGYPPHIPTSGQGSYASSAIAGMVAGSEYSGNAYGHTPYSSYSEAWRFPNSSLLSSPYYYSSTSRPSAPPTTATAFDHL

[32] = A549 cell viability loss – cherry-picked samples, cytotoxicity control, dose response (AID 1053184); type: functional, cell-based
[33] = cell viability loss, ATP luminescence – CellTiter-Glo, 24 h, powder samples, set 7, cytotoxicity control for SR-BI HDL uptake inhibitor project, dose response (AID 624026); type: functional, cell-based
[34] = target: T4, Scavenger receptor class B member 1 (Mus musculus, UniProt Q61009); test: blockers of DiI-HDL lipid transfer via SR-BI – cell-based, ldlA[mSR-BI] CHO, DiI fluorescence, dry powder, set 10, dose response (AID 624029); type: functional
T4 sequence (Q61009 whole entry): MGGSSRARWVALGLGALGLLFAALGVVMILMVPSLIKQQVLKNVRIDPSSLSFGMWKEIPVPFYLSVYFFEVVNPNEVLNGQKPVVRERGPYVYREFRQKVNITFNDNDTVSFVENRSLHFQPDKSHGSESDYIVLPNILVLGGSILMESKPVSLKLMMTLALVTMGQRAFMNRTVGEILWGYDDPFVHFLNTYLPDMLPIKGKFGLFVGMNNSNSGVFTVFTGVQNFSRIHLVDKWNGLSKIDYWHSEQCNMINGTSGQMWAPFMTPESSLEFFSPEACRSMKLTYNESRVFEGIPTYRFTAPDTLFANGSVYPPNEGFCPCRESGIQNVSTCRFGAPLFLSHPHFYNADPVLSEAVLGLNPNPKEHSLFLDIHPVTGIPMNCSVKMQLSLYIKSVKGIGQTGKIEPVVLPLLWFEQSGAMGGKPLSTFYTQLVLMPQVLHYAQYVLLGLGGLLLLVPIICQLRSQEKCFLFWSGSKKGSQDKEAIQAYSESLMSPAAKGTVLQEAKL

[35] = viability loss in MITF-independent A375 cells – cell-based, CellTiter-Glo luminescence, dry powder, set 2, counter-screen for MITF inhibitor project, dose response (AID 624489); type: functional; settings: A-375;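 note: actives are compounds lowering A375 viability meaning general cytotoxicity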
[36] = cytotoxicity in MITF-independent A375 cells – cell-based, CellTiter-Glo luminescence, dry powder, set 4, counter-screen for MITF inhibitor project, dose response (AID 624364); type: functional; settings: A-375;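 note: A375 melanoma cells are MITF independent so this is a counter screen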
[37] = viability loss in HEK293 kidney cells – cell-based, cherry-picks, set 5, cytotoxicity control, dose response (AID 1053117); type: functional
[38] = viability loss in A549 lung cancer cells – cell-based, cherry-picks, […], cytotoxicity control, dose response (AID 1053119); type: functional
[39] = viability loss in HepG2 hepatoma cells – cell-based, cherry-picks, set 5, cytotoxicity control, dose response (AID 1053118); type: functional
[40] = rescue of ΔF508 CFTR function, airway epithelium – human bronchial epithelial cells, plate reader, cherry-pick, two tests, dose response (AID 743267); type: functional, cell-based
[41] = target: Metabotropic glutamate receptor 3 (Rattus norvegicus, UniProt P31422); test: inhibition of rat mGlu3 glutamate signaling – HEK/GIRK cells, thallium flux, dose response (AID 651839); type: functional
Sequence of Metabotropic glutamate receptor 3 (P31422 whole entry): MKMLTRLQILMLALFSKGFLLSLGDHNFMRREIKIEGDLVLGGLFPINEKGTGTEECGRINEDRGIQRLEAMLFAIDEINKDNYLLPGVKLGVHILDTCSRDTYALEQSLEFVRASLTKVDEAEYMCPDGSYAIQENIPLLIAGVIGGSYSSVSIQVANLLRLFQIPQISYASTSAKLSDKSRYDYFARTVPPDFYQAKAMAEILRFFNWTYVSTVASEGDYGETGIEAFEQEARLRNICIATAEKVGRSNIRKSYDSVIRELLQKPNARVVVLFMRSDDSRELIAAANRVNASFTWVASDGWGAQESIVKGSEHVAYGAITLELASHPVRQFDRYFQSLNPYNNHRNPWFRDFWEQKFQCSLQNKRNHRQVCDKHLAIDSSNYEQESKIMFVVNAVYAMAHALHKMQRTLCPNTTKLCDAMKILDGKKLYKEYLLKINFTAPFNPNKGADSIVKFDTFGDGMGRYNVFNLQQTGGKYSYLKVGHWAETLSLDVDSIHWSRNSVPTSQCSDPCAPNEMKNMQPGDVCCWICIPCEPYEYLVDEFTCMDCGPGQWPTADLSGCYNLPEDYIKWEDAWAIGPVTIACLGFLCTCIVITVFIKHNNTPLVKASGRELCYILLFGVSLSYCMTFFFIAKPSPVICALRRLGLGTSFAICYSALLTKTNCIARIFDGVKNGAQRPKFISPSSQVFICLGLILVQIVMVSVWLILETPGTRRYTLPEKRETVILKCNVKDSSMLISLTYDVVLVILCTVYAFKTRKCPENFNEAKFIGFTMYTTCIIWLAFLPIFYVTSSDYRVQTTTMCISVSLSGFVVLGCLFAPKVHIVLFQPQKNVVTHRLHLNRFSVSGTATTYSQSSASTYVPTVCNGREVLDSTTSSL

[42] = Cytotoxicity screening for potential Inhibitors of Bacterial Capsule Biogenesis (4).; type: functional
[43] = Late stage assay provider results from the probe development effort to identify selective inhibitors of heat shock protein 90 (HSP90): Absorbance-based cell proliferation assay in SKBR3 cells.; type: functional; settings: SK-BR-3
[44] = Late stage assay provider results from the probe development effort to identify selective inhibitors of heat shock protein 90 (HSP90): Absorbance-based cell proliferation assay in MCF7 cells.; type: functional
[45] = anti-trypanosomal activity in BESM host cells – imaging, CA-I/72 strain, bovine embryo skeletal muscle, dry powder, dose response (AID 651885); type: functional, cell-based
[46] = target: T4, Scavenger receptor class B member 1; test: mouse SR-BI DiI-HDL transfer blockers – ldlA[mSR-BI] CHO cells, fluorescence plate reader, dry powder, set 9, dose response (AID 623880); type: functional, cell-based

Sequence of Galanin receptor type 3 (O60755 whole entry): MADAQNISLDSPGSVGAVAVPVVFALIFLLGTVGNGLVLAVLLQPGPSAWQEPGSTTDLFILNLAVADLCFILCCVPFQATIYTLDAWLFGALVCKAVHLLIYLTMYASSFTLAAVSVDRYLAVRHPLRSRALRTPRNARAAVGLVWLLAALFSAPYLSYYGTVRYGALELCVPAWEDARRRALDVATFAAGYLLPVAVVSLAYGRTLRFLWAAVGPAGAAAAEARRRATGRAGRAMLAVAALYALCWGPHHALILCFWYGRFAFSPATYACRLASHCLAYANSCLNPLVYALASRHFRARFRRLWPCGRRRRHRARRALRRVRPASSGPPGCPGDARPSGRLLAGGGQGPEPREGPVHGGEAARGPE

Structure (SMILES): COc1cccc2[nH]c3c(N4CCCC(C)C4)ncnc3c12 (configuration not stated)
- IC50 [1]: 0.4 µM (active)
- EC50 [2]: > 29.9 µM (inactive)

Structure (SMILES): Cc1ccc(NC(=O)c2ccc3snnc3c2)cc1C
- IC50 [3]: > 67.6 µM (inactive)
- IC50 [4]: > 67.6 µM (inactive)

Structure (SMILES): C=CCN1C(=S)CC(c2ccccc2)=Nc2ccccc21
- AC50 [5]: > 52 µM (inactive)
- AC50 [6]: 47.9 µM (active)
- AC50 [7]: > 52 µM (inactive)

Structure (SMILES): CCOC(=O)c1cc2c(=O)n3ccccc3nc2n(Cc2ccc(Cl)cc2)c1=N
- AC50 [8]: 1.99 µM (active)
- EC50 [9]: > 99 µM (inactive)
- EC50 [10]: > 99 µM (inactive)

Structure (SMILES): Cn1sccc1=O
- IC50 [11]: > 66 µM (inactive)
- EC50 [12]: > 91.2 µM (inactive)
- IC50 [13]: > 66 µM (inactive)
- EC50 [14]: > 91.2 µM (inactive)

Structure (SMILES): O=C(CSc1ncnc2c1cnn2-c1ccccc1)Nc1ccc2c(c1)OCO2
- AC50 [15]: 14 µM (active)

Structure (SMILES): COc1ccccc1C(=O)N1[C@@H](C(C)C)COc2cc(Br)ccc2S1(=O)=O
- AC50 [16]: 24.4 µM (active)
- AC50 [17]: 28 µM (active)

Structure (SMILES): C/C(=N\NC(N)=S)C1C2C3CC4C5CC(C42)C1C53 (configuration not stated)
- CC50 [18]: > 40 µM (active)
- IC50 [19]: 6.4 µM (active)

Structure (SMILES): Cc1ccccc1S(=O)(=O)N1C[C@@H]2N[C@H](C1)[C@H]2c1ccc(-c2cccc(C#N)c2)cc1
- AC50 [20]: 7.87 µM (active)
- AC50 [21]: 21.7 µM (active)
- AC50 [22]: 51.4 µM (active)
- AC50 [23]: 39.1 µM (active)
- AC50 [24]: 20.5 µM (active)
- AC50 [25]: 31.9 µM (active)
- AC50 [26]: 9.35 µM (active)
- AC50 [27]: 35.5 µM (active)
- AC50 [28]: 14.3 µM (active)
- AC50 [29]: 20.4 µM (active)
- AC50 [30]: 14.8 µM (active)
- AC50 [31]: 3.75 µM (active)
- AC50 [32]: 36.5 µM (active)

Structure (SMILES): CC(C)NC(=O)Nc1ccc2c(c1)C(=O)N([C@@H](C)CO)C[C@H](C)[C@@H](CN(C)S(=O)(=O)c1ccc(Cl)cc1)O2
- AC50 [33]: > 70 µM (inactive)
- AC50 [34]: > 70 µM (inactive)

Structure (SMILES): Cc1ccc(C(=O)NC2=C(c3ccc(OC(F)(F)F)cc3)C(=O)c3ccccc3C2=O)o1
- AC50 [35]: 21.3 µM (active)
- AC50 [36]: 33.4 µM (active)

Structure (SMILES): O=C(Nc1ccc(Cl)cc1)N1C[C@H]2[C@@H](c3ccccc31)[C@H](CO)N2CC1CCCC1
- AC50 [37]: 40.4 µM (active)
- AC50 [38]: 47.5 µM (active)
- AC50 [39]: 35.8 µM (active)

Structure (SMILES): COc1cccc(-c2ccc([C@@H]3[C@@H]4CN(S(=O)(=O)c5cccc(OC)c5)C[C@H]3N4)cc2)c1
- AC50 [40]: 13.5 µM (active)

Structure (SMILES): COc1ccc(C#Cc2ccc(C(=O)N3CCC(CO)C3)cc2)c(F)c1 (configuration not stated)
- IC50 [41]: 6.85 µM (active)

Structure (SMILES): COc1cc(NC(=O)c2ccc3nc(N)sc3c2)ccn1
- CC50 [42]: 172 µM (active)

Structure (SMILES): COc1ccc(NC(=O)c2coc(=O)c(Br)c2)cc1
- IC50 [43]: 8.2 µM (active)
- IC50 [44]: 2.4 µM (active)

Structure (SMILES): C[C@@H]1CN([C@@H](C)CO)C(=O)c2cccc(NC(=O)c3ccncc3)c2O[C@H]1CN(C)C
- IC50 [45]: > 20 µM (inactive)

Structure (SMILES): COc1c(NC(=O)C(=O)c2ccc(OCCN3CCOCC3)c3ccccc23)cc(C(C)(C)C)cc1NS(C)(=O)=O [ITX-5061 FREE BASE]
- AC50 [46]: 0.0114 µM (active)
- AC50 [34]: 0.146 µM (active)
